Reference: article PMC9719863 (Molecular Metabolism, 2022)
*1 amine or outer side, *2 acyl side, *3 side chain or, on linkers, in order; H or OH if unused. Where no end group is shown, it is not given here. Side-chain parts run from the residue outwards. The star is where a group is joined. γGlu = O=C(O)[C@H](CCC(=O)[*:2])N[*:1]; Palmitoyl = CCCCCCCCCCCCCCCC(=O)*

T1: hGIPR (Homo sapiens, UniProt P48546)
T1 sequence (P48546 22-466): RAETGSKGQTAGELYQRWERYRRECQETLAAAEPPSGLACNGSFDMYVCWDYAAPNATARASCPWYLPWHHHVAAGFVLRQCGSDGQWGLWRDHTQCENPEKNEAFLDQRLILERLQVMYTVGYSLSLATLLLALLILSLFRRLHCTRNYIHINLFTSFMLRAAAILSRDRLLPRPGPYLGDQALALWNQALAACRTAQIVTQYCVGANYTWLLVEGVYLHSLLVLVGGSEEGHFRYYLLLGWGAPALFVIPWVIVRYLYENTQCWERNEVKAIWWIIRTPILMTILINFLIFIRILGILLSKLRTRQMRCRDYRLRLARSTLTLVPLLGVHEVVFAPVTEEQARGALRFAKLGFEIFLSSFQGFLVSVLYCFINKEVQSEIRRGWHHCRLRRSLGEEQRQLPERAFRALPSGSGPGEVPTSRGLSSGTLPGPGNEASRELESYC

T2: mGIPR (Mus musculus, UniProt Q0P543)
T2 sequence (Q0P543 19-460): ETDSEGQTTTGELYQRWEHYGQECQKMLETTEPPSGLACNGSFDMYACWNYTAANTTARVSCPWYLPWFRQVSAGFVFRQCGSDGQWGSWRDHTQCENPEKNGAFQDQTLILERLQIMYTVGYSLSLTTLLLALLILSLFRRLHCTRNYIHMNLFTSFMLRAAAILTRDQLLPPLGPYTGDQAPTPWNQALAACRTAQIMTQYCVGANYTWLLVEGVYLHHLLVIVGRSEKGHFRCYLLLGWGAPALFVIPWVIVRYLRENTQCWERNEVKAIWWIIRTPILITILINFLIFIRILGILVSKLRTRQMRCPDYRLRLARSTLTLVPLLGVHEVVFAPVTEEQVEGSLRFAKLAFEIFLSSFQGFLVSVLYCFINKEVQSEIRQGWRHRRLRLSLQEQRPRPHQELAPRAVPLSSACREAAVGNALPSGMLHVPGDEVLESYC

T3: human GIP receptor (human) (UniProt P48546)
T3 sequence: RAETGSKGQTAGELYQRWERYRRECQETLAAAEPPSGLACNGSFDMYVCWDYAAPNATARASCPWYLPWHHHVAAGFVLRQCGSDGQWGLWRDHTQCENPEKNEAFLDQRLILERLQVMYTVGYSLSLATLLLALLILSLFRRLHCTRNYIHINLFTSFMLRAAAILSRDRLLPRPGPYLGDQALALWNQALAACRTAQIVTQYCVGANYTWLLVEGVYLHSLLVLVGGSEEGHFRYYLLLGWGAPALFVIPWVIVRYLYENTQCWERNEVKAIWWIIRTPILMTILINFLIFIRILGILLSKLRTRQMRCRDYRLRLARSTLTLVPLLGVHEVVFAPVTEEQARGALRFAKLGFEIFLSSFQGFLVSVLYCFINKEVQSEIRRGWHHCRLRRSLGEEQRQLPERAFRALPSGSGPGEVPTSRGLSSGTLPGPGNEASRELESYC

T4: mouse GIP receptor (mouse) (UniProt Q0P543)
T4 sequence: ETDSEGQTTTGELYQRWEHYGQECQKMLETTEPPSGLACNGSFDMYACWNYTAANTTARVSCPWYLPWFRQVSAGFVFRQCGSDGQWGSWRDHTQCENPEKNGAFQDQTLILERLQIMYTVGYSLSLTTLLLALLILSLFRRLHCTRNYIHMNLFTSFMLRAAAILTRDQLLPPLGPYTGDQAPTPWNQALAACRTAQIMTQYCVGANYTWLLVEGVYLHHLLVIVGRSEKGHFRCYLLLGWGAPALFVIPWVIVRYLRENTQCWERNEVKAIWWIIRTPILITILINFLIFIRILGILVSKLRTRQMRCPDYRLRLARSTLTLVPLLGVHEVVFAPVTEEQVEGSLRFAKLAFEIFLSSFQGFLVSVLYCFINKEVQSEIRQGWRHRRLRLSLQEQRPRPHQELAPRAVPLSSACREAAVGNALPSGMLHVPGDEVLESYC

T5: human GIP receptor (human, UniProt P48546 22-466)
T5 sequence: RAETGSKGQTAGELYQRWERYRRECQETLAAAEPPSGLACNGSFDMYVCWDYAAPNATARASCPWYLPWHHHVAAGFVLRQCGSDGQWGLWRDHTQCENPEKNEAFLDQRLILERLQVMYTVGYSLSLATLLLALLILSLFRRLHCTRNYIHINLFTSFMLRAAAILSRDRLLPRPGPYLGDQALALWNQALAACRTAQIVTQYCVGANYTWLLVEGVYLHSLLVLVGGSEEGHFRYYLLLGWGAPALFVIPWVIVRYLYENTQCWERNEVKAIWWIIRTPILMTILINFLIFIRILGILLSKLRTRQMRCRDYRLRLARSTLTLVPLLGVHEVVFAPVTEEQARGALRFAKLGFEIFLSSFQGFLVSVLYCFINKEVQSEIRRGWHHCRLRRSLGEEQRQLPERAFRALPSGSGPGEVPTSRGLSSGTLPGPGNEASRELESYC

T6: mouse GIP receptor (mouse, UniProt Q0P543 19-460)
T6 sequence: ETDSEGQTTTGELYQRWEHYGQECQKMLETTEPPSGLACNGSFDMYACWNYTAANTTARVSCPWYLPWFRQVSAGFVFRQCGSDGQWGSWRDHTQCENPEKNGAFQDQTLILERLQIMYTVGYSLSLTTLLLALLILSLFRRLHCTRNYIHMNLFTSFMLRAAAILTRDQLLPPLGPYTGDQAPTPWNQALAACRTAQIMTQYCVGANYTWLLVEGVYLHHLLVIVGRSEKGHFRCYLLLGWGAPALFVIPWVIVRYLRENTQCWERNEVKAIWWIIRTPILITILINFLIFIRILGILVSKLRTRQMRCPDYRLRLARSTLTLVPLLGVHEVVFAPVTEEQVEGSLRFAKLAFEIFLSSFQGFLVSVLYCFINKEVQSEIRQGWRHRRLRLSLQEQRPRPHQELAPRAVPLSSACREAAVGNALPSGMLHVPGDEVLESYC


How the values were obtained:
hGIPR = biological target: T1, hGIPR; assay: cAMP CRE-luciferase assay in BHK cells expressing GIPR; format: cell-based; conditions: agonist mode; for Agonism at the hGIPR (cAMP production by peptide alone): without native ligand
mGIPR = biological target: T2, mGIPR; assay: as above; format: cell-based; conditions: agonist mode, without native ligand
[1] = biological target: T3, human GIP receptor (human)
[2] = biological target: T4, mouse GIP receptor (mouse)
human GIP receptor = biological target: T5, human GIP receptor; assay: cell-based or functional assay
mouse GIP receptor = biological target: T6, mouse GIP receptor; assay: cell-based or functional assay

| Molecule | Agonism at the hGIPR (cAMP production by peptide alone) (hGIPR) | Agonism at the mGIPR (cAMP production by peptide alone) (mGIPR) | further results |
| --- | --- | --- | --- |
| CCCCCCCCCCCCCCCC(=O)N[C@@H](CCC(=O)NCCCC[C@H](NC(=O)[C@H](Cc1ccc(O)cc1)NC(=O)[C@H](CC(=O)O)NC(=O)[C@H](CO)NC(=O)[C@@H](NC(=O)[C@H](Cc1ccccc1)NC(=O)[C@@H](NC(=O)CNC(=O)[C@@H](N)CCC(=O)O)[C@@H](C)O)[C@@H](C)CC)C(=O)N[C@H](C(=O)N[C@@H](C)C(=O)N[C@@H](CC(C)C)C(=O)N[C@@H](CC(=O)O)C(=O)N[C@@H](CCCCN)C(=O)N[C@H](C(=O)N[C@@H](CCCNC(=N)N)C(=O)N[C@@H](CCC(N)=O)C(=O)N[C@@H](CCC(N)=O)C(=O)N[C@@H](CCC(=O)O)C(=O)N[C@@H](Cc1ccccc1)C(=O)N[C@H](C(=O)N[C@@H](CC(N)=O)C(=O)N[C@@H](Cc1c[nH]c2ccccc12)C(=O)N[C@@H](CC(C)C)C(=O)N[C@@H](CC(C)C)C(=O)N[C@@H](C)C(=O)N[C@@H](CCC(N)=O)C(=O)N[C@@H](CCCCN)C(N)=O)C(C)C)[C@@H](C)CC)[C@@H](C)CC)C(=O)O [Peptide 6, [L14, R18, E21] hGIP(3–30)-K11 (γE-C16)] | negligible cAMP production as agonists | negligible cAMP production as agonists |  |
| CC[C@H](C)[C@H](NC(=O)[C@H](CO)NC(=O)[C@H](Cc1ccc(O)cc1)NC(=O)[C@H](CC(=O)O)NC(=O)[C@H](CO)NC(=O)[C@@H](NC(=O)[C@H](Cc1ccccc1)NC(=O)[C@@H](NC(=O)CNC(=O)[C@H](CCC(=O)O)NC(=O)[C@H](C)NC(=O)[C@@H](N)Cc1ccc(O)cc1)[C@@H](C)O)[C@@H](C)CC)C(=O)N[C@@H](C)C(=O)N[C@@H](CCSC)C(=O)N[C@@H](CC(=O)O)C(=O)N[C@@H](CCCCN)C(=O)N[C@H](C(=O)N[C@@H](CCCNC(=N)N)C(=O)N[C@@H](CCC(N)=O)C(=O)N[C@@H](CCC(N)=O)C(=O)N[C@@H](CC(=O)O)C(=O)N[C@@H](Cc1ccccc1)C(=O)N[C@H](C(=O)N[C@@H](CC(N)=O)C(=O)N[C@@H](Cc1c[nH]c2ccccc12)C(=O)N[C@@H](CC(C)C)C(=O)N[C@@H](CC(C)C)C(=O)N[C@@H](C)C(=O)N[C@@H](CCC(N)=O)C(=O)N[C@@H](CCCNC(=N)N)C(=O)NCC(=O)N[C@@H](CCCCN)C(=O)N[C@@H](CCCCN)C(=O)N[C@@H](CO)C(=O)N[C@@H](CC(=O)O)C(=O)N[C@@H](Cc1c[nH]c2ccccc12)C(=O)N[C@@H](CCCCN)C(=O)N[C@@H](Cc1c[nH]cn1)C(=O)N[C@@H](CC(N)=O)C(=O)N[C@H](C(=O)N[C@H](C(=O)N[C@@H](CCC(N)=O)C(=O)O)[C@@H](C)O)[C@@H](C)CC)C(C)C)[C@@H](C)CC [mGIP, reference compound] |  |  | EC50 (hGIPR; cAMP EC50, hGIPR, native ligand, Table 1): 0.01 nM |
| EGTFISDYSIALDKIRQQEFVNWLLAQK-NH2 [Peptide 2, [L14, R18, E21] hGIP(3–30)] | partial agonism | no significant agonism |  |
| FISDYSIALDKIRQQEFVNWLLAQKG [Peptide 4, [L14, R18, E21] hGIP(6–31)] | partial agonism | no significant agonism |  |
| TFISDYSIALDKIRQQEFVNWLLAQKG [Peptide 3, [L14, R18, E21] hGIP(5–31)] | partial agonism | no significant agonism |  |
| [Pla6, L14, R18, E21] hGIP(6-31) (peptide) |  |  | maximal % inhibition of GIP-induced cAMP in BHK cells expressing hGIPR [1]: 98%; maximal % inhibition of GIP-induced cAMP in BHK cells expressing mGIPR [2]: 99% |
| [Pla6, L14, R18, E21] hGIP(6-31)-K11 (γE-C16) (peptide) |  |  | maximal % inhibition of GIP-induced cAMP in BHK cells expressing hGIPR [1]: 100%; maximal % inhibition of GIP-induced cAMP in BHK cells expressing mGIPR [2]: 99% |
| mouse GIP (from UniProt P48756 44-85) (ligand) |  |  | EC50 of cAMP production (CRE-luciferase) in BHK cells expressing hGIPR [1]: 0.01 nM |
| Ac-TFISDYK([γGlu-Palmitoyl])IALDKIRQQEFVNWLLAQKG [[Nα-Ac, L14, R18, E21] hGIP(5-31)-K11 (γE-C16)] |  |  | maximal % inhibition of GIP-induced cAMP in BHK cells expressing hGIPR (human GIP receptor): 100%; maximal % inhibition of GIP-induced cAMP in BHK cells expressing mGIPR (mouse GIP receptor): 100% |
